# From article PMC4434909, “In vitro properties of designed antimicrobial peptides that exhibit potent antipneumococcal activity and produces synergism in combination with penicillin” (Scientific Reports, 2015)
# Where no end group is shown, it is not given here.
# What was measured:
# E. cloaceae = type: cell-based, E. cloacae; details: Gram-negative, clinical isolate; broth microdilution, CAMHB, peptides 1.96–250 μg/ml
# Text: (§1) All bacterial strains were obtained from Department of Medical Microbiology, University of Malaya. Clinical isolates were previously obtained from University of Malaya Medical Centre and maintained in the laboratory. Sheep blood agar was used for pneumococcal cultivation purpose. Nutrient agar was used for cultivating E. coli ATCC 25922, S. aureus ATCC 25923, and P. aeruginosa ATCC 15442, Acinetobacter baumanii ATCC 15308, and one clinical isolate for each MRSA, E. cloacae, Citrobacter spp., and K. pneumoniae. For antimicrobial testing, Mueller-Hinton agar (MHA) and cationically-adjusted MHB (CAMHB) were prepared according to the Clinical and Laboratory Standard Institute guidelines. MHA for S. pneumoniae was supplemented with 5% (v/v) defibrinated sheep blood and 5% laked horse blood for CAMHB. All bacterial cultures were stored in multiple vials in brain heart infusion broth supplemented with 10% (v/v) glycerol at −80°C to avoid repeated freeze-thawed cycles on the cells. All freeze-stocked strains were passaged twice prior to experimentation.
# (§2) Procedures were performed to determine the MIC of peptides according to the CLSI guidelines[21] against 60 pneumococcal isolates which consisted of 20 isolates each for PRSP, PISP, and PSSP. Strains were grown for 18–24 hrs at 37°C under 5% CO2. Direct suspension of the colonies were made in CAMHB and adjusted to OD625 0.08–0.1 which corresponds to 1 ~ 2 × 10^8 CFU/ml followed by serial ten-fold dilutions to give 1 × 10^6 CFU/ml. Fifty microliters of bacterial suspension was then aliquoted to 96-well round bottom microtiter plates containing equal volume of serially diluted peptides to give final concentrations of peptides encompassing the range of 1.96–250 μg/ml. […] The plates were incubated for 18–24 hrs at 37°C under 5% CO2. MIC was read as the concentration of peptide producing complete inhibition on the visible growth of the test organism. Results were pooled from three independent experiments. MIC range was defined as the range of concentrations where the peptides produce detectable antimicrobial activity. Effective percentage (EP) was the proportion of pneumococcal isolates inhibited within the MIC range. Since the isolates tested were obtained prior to 2008 where major revision in antibiotic susceptibility breakpoints were introduced, thus the pneumococci were defined according to the PEN susceptibility breakpoint (prior 2008) which corresponds to the PEN (oral penicillin V) breakpoint of the revised criteria.
# (§3) The broad spectrum antibacterial activity of the peptides against a panel of eight clinically important bacteria was also determined, this includes S. aureus ATCC 25923, E. coli ATCC 25922, P. aeruginosa ATCC 15442, A. baumanii ATCC 15308, and one clinical isolate each for MRSA, E. cloacae, Citrobacter spp., and K. pneumoniae.
# NL20 cell line = assay: Cytotoxicity against human cell lines (CellTiter 96 AQueous); type: cell-based
# Procedure: (§4) Both the NL20 human lung bronchial normal epithelial cell line and the A549 human lung alveolar adenocarcinoma epithelial cell line were used for cell cytotoxicity tests. Besides investigating the cytotoxicity of peptides, differences in cell viability between the two cell lines can be used to evaluate the cell line selectivity and to assess potential anticancer potential of the peptides. NL20 cell line was grown in Ham's F12 medium and A549 cell line was grown in Roswell Park Memorial Institute medium. Both media were supplemented with fetal bovine serum to 10% (v/v) as growth medium or 2% (v/v) as maintenance medium in cell cytotoxicity testing. The assay was performed as described by Lee et al.[26]. NL20 cells was seeded overnight at 3 × 10^4 cells/well in 96-well cell culture-treated flat bottom microtiter plate and treated with serial dilutions of peptide at a final concentration of 1.95–250 μg/ml. PEN was tested from 0.03–4 μg/ml, the same range used to classify the susceptibility of pneumococcal isolates in this study. Test using A549 cells followed the same procedures with 1 × 10^4 cells/well. Plates were incubated at 37°C under 5% CO2 for 24, 48, and 72 hrs. Cell viability was detected by using CellTiter 96® AQueous Non-Radioactive Cell Proliferation assay (Promega, USA) and the colorimetric changes were read with Glomax multidetection system (Promega, USA) at OD 490 nm. Results were pooled from three independent experiments and expressed as mean ± SD. […] Imax was the percentage of cell viable treated with peptides/PEN at the maximum concentration as defined throughout this study (all peptides 250 μg/ml, PEN 4 μg/ml).
# A549 cell line = assay: as above; type: cell-based
# Procedure: as §4
# [1] = system: penicillin-resistant Streptococcus pneumoniae (PRSP); type: cell-based
# Text: as §1, §2
# S. pneumoniae = type: cell-based, Streptococcus pneumoniae
# Text: as §1, §2
# [2] = system: penicillin-intermediate S. pneumoniae (PISP); type: cell-based, Streptococcus pneumoniae
# Text: as §1, §2
# [3] = system: penicillin-susceptible S. pneumoniae (PSSP); type: cell-based, Streptococcus pneumoniae
# Text: as §1, §2
# E. coli ATCC 25922 = type: cell-based; details: ATCC 25922
# Text: as §1, §2, §3
# Citrobacter spp. = type: cell-based; details: Gram-negative, clinical isolate; broth microdilution, CAMHB, peptides 1.96–250 μg/ml
# Text: as §1, §2, §3
# P. aeruginosa ATCC 15442 = type: cell-based; details: ATCC 15442
# Text: as §1, §2, §3
# S. aureus ATCC 25923 = type: cell-based; details: ATCC 25923
# Text: as §1, §2, §3
# [4] = system: multiple gram-positive and gram-negative bacteria; type: cell-based; details: range: DM3 against seven bacteria; DM4 and DM5 apart from higher MICs against E. cloaceae, K. pneumoniae, S. aureus
# Text: as §1, §2, §3
# [5] = effective percentage: proportion of isolates inhibited within the MIC range
substance,measurement,setting,value
GLFDIWKWWRWRR-NH2 [DM3],"MIC, E. cloaceae",E. cloaceae,31.3 µg/mL
same,"Imax, NL20 cell line, 24 hrs",NL20 cell line,13.3 ± 2.1%
same,"Imax, NL20 cell line, 48 hrs",NL20 cell line,24.0 ± 7.6%
same,"Imax, NL20 cell line, 72 hrs",NL20 cell line,12.4 ± 4.5%
same,"IC50, NL20 cell line, 24 hrs",NL20 cell line; 24 h,68.5 ± 11.0 µg/mL
same,"IC50, NL20 cell line, 48 hrs",NL20 cell line; 48 h,91.5 ± 7.6 µg/mL
same,"IC50, NL20 cell line, 72 hrs",NL20 cell line; 72 h,112.2 ± 8.8 µg/mL
same,"IC50, A549 cell line, 24 hrs",A549 cell line; 24 h,56.0 ± 9.3 µg/mL
same,"IC50, A549 cell line, 48 hrs",A549 cell line; 48 h,80.0 ± 1.7 µg/mL
same,"IC50, A549 cell line, 72 hrs",A549 cell line; 72 h,96.2 ± 4.4 µg/mL
same,"MIC, PRSP","[1]; MIC range over 20 PRSP isolates, CLSI broth microdilution, CAMHB with 5% laked horse blood, 18–24 hrs 37°C 5% CO2, peptides 1.96–250 μg/ml, three independent experiments",15.63 to 62.5 µg/mL
same,"EP %, PRSP",[1]; [5],(100.0) %
same,Overall MIC,S. pneumoniae,7.81 to 62.5 µg/mL
same,Overall EP,S. pneumoniae; proportion of the 60 pneumococcal isolates inhibited within the MIC range,100.0%
same,"MIC, PISP","[2]; MIC range over 20 PISP isolates, CLSI broth microdilution, CAMHB with 5% laked horse blood, 18–24 hrs 37°C 5% CO2, peptides 1.96–250 μg/ml, three independent experiments",7.81 to 62.5 µg/mL
same,"EP %, PISP",[2]; [5],(100.0) %
same,"MIC, PSSP","[3]; MIC range over 20 PSSP isolates, CLSI broth microdilution, CAMHB with 5% laked horse blood, 18–24 hrs 37°C 5% CO2, peptides 1.96–250 μg/ml, three independent experiments",7.81 to 62.5 µg/mL
same,"EP %, PSSP",[3]; [5],(100.0) %
same,"MIC, E. coli ATCC 25922",E. coli ATCC 25922,62.5 µg/mL
same,"MIC, Citrobacter spp.",Citrobacter spp.,15.63 µg/mL
same,"MIC, P. aeruginosa ATCC 15442",P. aeruginosa ATCC 15442,125 µg/mL
same,"MIC, S. aureus ATCC 25923",S. aureus ATCC 25923,15.63 µg/mL
same,antibacterial MIC range over the bacterial panel,[4],7.81 to 62.5 µg/mL
